Test results from US7989633B2, “4-Chromenonyl-1,4-dihydropyridines and their use” (Bayer Schering Pharma Aktiengesellschaft, priority 2005, dated 2011).

Molecular target: T1, human mineralocorticoid receptor (MR) (Homo sapiens, UniProt P08235)
T1 construct: expressed in transfected cells
T1 sequence (P08235 734-984 limits assumed): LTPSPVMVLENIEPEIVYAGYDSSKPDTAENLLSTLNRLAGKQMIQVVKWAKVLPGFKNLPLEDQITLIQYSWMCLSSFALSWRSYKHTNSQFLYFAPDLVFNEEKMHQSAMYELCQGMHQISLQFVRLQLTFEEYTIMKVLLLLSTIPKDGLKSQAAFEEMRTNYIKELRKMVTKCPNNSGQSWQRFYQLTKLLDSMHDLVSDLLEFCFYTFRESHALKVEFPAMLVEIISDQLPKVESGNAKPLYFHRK
Test: Cellular in vitro assay to determine the inhibitory MR activity (GAL4-MR chimera luciferase reporter in CHO K1 cells)
Format: cell-based
Details: GAL4-MR ligand-binding domain chimera in CHO K1 cells, agonist aldosterone
Text: 1. Cellular In Vitro Assay to Determine the Inhibitory MR Activity and MR Selectivity Compared with Other Steroid Hormone Receptors
Antagonists of the human mineralocorticoid receptor (MR) are identified, and the activity of the compounds described herein is quantified with the aid of a recombinant cell line. The cell is originally derived from a hamster ovary epithelial cell (Chinese Hamster Ovary, CHO K1, ATCC: American Type Culture Collection, VA 20108, USA).
An established chimera system in which the ligand-binding domains of human steroid hormone receptors are fused to the DNA-binding domain of the yeast transcription factor GAL4 is used in this CHO K1 cell line. The GAL4-steroid hormone receptor chimeras produced in this way are cotransfected and stably expressed with a reporter construct in the CHO cells.
To generate the GAL4-steroid hormone receptor chimeras, the GAL4 DNA binding domain (amino acids 1-147) from the vector pFC2-dbd (from Stratagene) is cloned with the PCR-amplified ligand-binding domains of the mineralocorticoid receptor (MR, amino acids 734-985), of the glucocorticoid receptor (GR, amino acids 443-777), of the progesterone receptor (PR, amino acids 680-933) and of the androgen receptor (AR, amino acids 667-919) into the vector pIRES2 (from Clontech). The reporter construct, which comprises five copies of the GAL4 binding site upstream of a thymidine kinase promoter, leads to expression of firefly-luciferase (Photinus pyralis) after activation and binding of the GAL4-steroid hormone receptor chimeras by the respective specific agonists aldosterone (MR), dexamethasone (GR), progesterone (PR) and dihydrotestosterone (AR).
The MR, GR, PR and AR cells are plated out in medium (Optimem, 2.5% FCS, 2 mM glutamine, 10 mM HEPES) in 96- (or 384- or 1536-) well microtiter plates on the day before the assay and are kept in a cell incubator (96% humidity, 5% v/v CO2, 37° C.). On the day of the assay, the substances to be tested are taken up in the abovementioned medium and added to the cells. About 10 to 30 minutes after addition of the test substances, the respective specific agonists of the steroid hormone receptors are added. After a further incubation time of 5 to 6 hours, the luciferase activity is measured with the aid of a video camera. The measured relative light units as a function of the substance concentration result in a sigmoidal stimulation curve. The IC50 values are calculated with the aid of the GraphPad PRISM computer program (Version 3.02).

Row | IC50 [nM] | SMILES
1 | 75 | CCOC(=O)C1=C(C)NC(C)=C(C(C)=O)C1c1cccc2c(=O)cc(C)oc12 (racemic) [Example 1 (Racemate), Ethyl 5-acetyl-2,6-dimethyl-4-(2-methyl-4-oxo-4H-chromen-8-yl)-1,4-dihydropyridine-3-carboxylate]
2 | 43 | CCOC(=O)C1=C(C)NC(C)=C(C(C)=O)C1c1cccc2c(=O)cc(C)oc12 (single isomer, unassigned) [Example 1 (Enantiomer 2), Ethyl 5-acetyl-2,6-dimethyl-4-(2-methyl-4-oxo-4H-chromen-8-yl)-1,4-dihydropyridine-3-carboxylate]
3 | 22 | CC(=O)C1=C(C)NC(C)=C(C(=O)OC2CCCC2)C1c1cccc2c(=O)cc(C)oc12 (stereo not shown) [Example 2, Cyclopentyl 5-acetyl-2,6-dimethyl-4-(2-methyl-4-oxo-4H-chromen-8-yl)-1,4-dihydropyridine-3-carboxylate]
4 | 39 | CC(=O)C1=C(C)NC(C)=C(C(=O)OC(C)C)C1c1cccc2c(=O)cc(C)oc12 (stereo not shown) [Example 3, Isopropyl 5-acetyl-2,6-dimethyl-4-(2-methyl-4-oxo-4H-chromen-8-yl)-1,4-dihydropyridine-3-carboxylate]
5 | 235 | COC(=O)C1=C(C)NC(C)=C(C(C)=O)C1c1cccc2c(=O)cc(C)oc12 (stereo not shown) [Example 4, Methyl 5-acetyl-2,6-dimethyl-4-(2-methyl-4-oxo-4H-chromen-8-yl)-1,4-dihydropyridine-3-carboxylate]
6 | 19 | CC1=C(C(=O)OC(C)C)C(c2cccc3c(=O)cc(C)oc23)C(C(=O)C(F)(F)F)=C(C)N1 (stereo not shown) [Example 8, Isopropyl 2,6-dimethyl-4-(2-methyl-4-oxo-4H-chromen-8-yl)-5-(trifluoroacetyl)-1,4-dihydro-pyridine-3-carboxylate]
7 | 74 | CCOC(=O)C1=C(C)NC(C)=C(C(C)=O)C1c1ccc(F)c2c(=O)cc(C)oc12 (stereo not shown) [Example 11, Ethyl 5-acetyl-2,6-dimethyl-4-(5-fluoro-2-methyl-4-oxo-4H-chromen-8-yl)-1,4-dihydropyridine-3-carboxylate]
8 | 104 | CCOC(=O)C1=C(C)NC(C)=C(C(=O)c2ccccc2)C1c1cccc2c(=O)cc(C)oc12 (stereo not shown) [Example 14, Ethyl 5-benzoyl-2,6-dimethyl-4-(2-methyl-4-oxo-4H-chromen-8-yl)-1,4-dihydropyridine-3-carboxylate]
9 | 18 | COC(=O)C1=C(C)NC(C)=C(C(=O)CC2CCC2)C1c1cccc2c(=O)cc(C)oc12 (stereo not shown) [Example 34, Methyl 5-(cyclobutylacetyl)-2,6-dimethyl-4-(2-methyl-4-oxo-4H-chromen-8-yl)-1,4-dihydro-pyridine-3-carboxylate]
10 | 27 | COC(=O)C1=C(C)NC(C)=C(C(=O)c2ccc(C)cc2)C1c1cccc2c(=O)cc(C)oc12 (stereo not shown) [Example 37, Methyl 2,6-dimethyl-5-(4-methylbenzoyl)-4-(2-methyl-4-oxo-4H-chromen-8-yl)-1,4-dihydro-pyridine-3-carboxylate]
